Earlier results as cited in US10251778B2, “Therapeutics dispensing device and methods of making same” (Baylor College of Medicine, priority 2012, dated 2019).
Structures can show the parent of a compound that is named as a salt. Each block holds one compound with its values, some of them ahead of it.

What was measured:
[1] = Acrylate Polymer Nanosuspensions
[2] = system: human cytomegalovirus (HCMV); conditions: Albumin Nanoparticles
[3] = not given; remark: listed apart in the source
[4] = in vitro
[5] = Poly(butyl)-cyano acrylate Nanopartilces

Structure (SMILES): CC(=O)Nc1nnc(S(N)(=O)=O)s1 [Acetazolamide]
Result (IOP) (Liposomes): Produced a marked decrease in IOP

Result (drug levels in aqueous humour) [1]: Increased drug levels in aqueous humour
Structure (SMILES): CC(C(=O)O)c1ccc(-c2ccccc2)c(F)c1 (stereo not drawn) [Flurbiprofen]

Structure (SMILES): Nc1nc2c(ncn2COC(CO)CO)c(=O)[nH]1 [GCV]
Result (antiviral activity) [2]: Increased antiviral aciivity against human

Structure (SMILES): CC[C@@H]1C(=O)OC[C@@H]1Cc1cncn1C [Pilocarpine HCl]
Result (response and ocular bioavailability) ([3]; Liposomes): Increased mitotic response and ocular

Structure (SMILES): CC[C@@H]1C(=O)OC[C@@H]1Cc1cncn1C [Pilocarpine nitrate]
Result (miotic activity) ([3]; Dendrimers): Prolonged miotic activity

Structure (SMILES): CC[C@@H]1C(=O)OC[C@@H]1Cc1cncn1C [Pilocarpine]
Decreased IOP (Microemulsions): Decreased IOP by 25%
decrease in IOP [5]: in IOP by 22%
Result (response) [3, 5]: Enhanced mitotic response and decrease

transcorneal penetration relative to the ionized form [4]: 2-3 times
Structure (SMILES): CC[C@@H]1C(=O)OC[C@@H]1Cc1cncn1C [pilocarpine base, pilocarpine]
